Laboratory results taken from PMC4914680 (Antimicrobial Agents and Chemotherapy, 2016).
“Also recorded” adds a separate entry of the source. Read-outs that look alike come from different tables or passages of the source.

How the values were obtained:
[1] = test system: HIV-1 NL4-3 ΔV370 variant (NLRepRlucP373S/Δ370); type: cell-based
HIV-1 NL4-3 = test: Time-of-addition study, NL4-3-infected B6 cells; type: cell-based; details: single cycle; for effect on luciferase signal by time of addition: 24 h postinfection; for time postinfection at which effectiveness begins to be lost: >100-fold EC50
[2] = test system: HIV-LAI envelope-pseudotyped RepRlucP373SΔenv virus; test: Two-stage single-cycle pseudotype assay (HIV-1 entry assay); type: cell-based
HIV-1 gp160 = molecular target: T1, HIV-1 gp160 (Human immunodeficiency virus type 1 group M subtype B, UniProt P04578); test: HIV-1 cell fusion assay; type: cell-based
T1 construct: expressed in transfected cells; host or cells: NL-TOE donor cells (target cells: HeLa C14)

[3] = test system: subtype B gag/pr recombinant viruses; test: Multiple-cycle Gag/Pr phenotyping assay; type: cell-based, HIV-1
[4] = test system: INI (140S, 148H) resistant virus (NLRepRluc-G140S/Q148H); type: cell-based, HIV-1
[5] = test system: NRTI (41L, 67N, 215F, 219E, 69N), AZT-resistant virus 7324-1; type: cell-based, HIV-1
[6] = test system: NNRTI (103N, 181C) resistant virus; type: cell-based, HIV-1
[7] = test system: NRTI (184V) resistant virus (LAI M184V); type: cell-based, HIV-1
[8] = test system: PI (46I, 82F, 84V, 90 M) resistant virus; type: cell-based, HIV-1
[9] = test system: PI (54V, 82A, 84V 84V) resistant virus; type: cell-based, HIV-1
[10] = test system: V370M virus (recombinant virus with gag/pr genes from a clinical isolate); test: microbe, parasite or virus in culture; type: cell-based, HIV-1; details: Human immunodeficiency virus 1, MT2, read-out: EC50 (SD)
HIV-1 Gag (WT LAI VLPs) = HIV-1 Gag (WT LAI VLPs) (Human immunodeficiency virus type 1 group M subtype B, UniProt P03348); test: [3H]BMS-955176-Gag binding (SPA); details: raltegravir at 10 μM; data not shown
[11] = molecular target: WT HIV-1 VLPs, p25 to p24 (CA/SP1) cleavage (Human immunodeficiency virus type 1 group M subtype B, UniProt P03348); test: HIV-1 VLP protease cleavage assay; type: biochemical; details: Western blot
[12] = Human immunodeficiency virus 1, NL43, MT2
[13] = Human immunodeficiency virus 1, read-out: EC50 (mean), sublibrary, None (WT), n=21
[14] = Human immunodeficiency virus 1, read-out: EC50 (mean), sublibrary, T371A/Q/N/S/TT, n=4
[15] = Human immunodeficiency virus 1, read-out: EC50 (mean), sublibrary, V362I, n=3
[16] = Human immunodeficiency virus 1, read-out: EC50 (mean), sublibrary, V370A + ΔT371, n=3
[17] = Human immunodeficiency virus 1, read-out: EC50 (mean), sublibrary, V370A, n=3
[18] = Human immunodeficiency virus 1, read-out: EC50 (mean), sublibrary, V370I/L/T, n=3
[19] = Human immunodeficiency virus 1, read-out: EC50 (mean), sublibrary, V370 M, n=5
[20] = Human immunodeficiency virus 1, NL43, MT2, read-out: EC50 (SD)

SMILES: Nc1ccn([C@@H]2CS[C@H](CO)O2)c(=O)n1 [Lamivudine]
- EC50 [1, 12]: 0.47 µM

SMILES: Cc1c(O)cccc1C(=O)N[C@@H](CSc1ccccc1)[C@H](O)CN1C[C@H]2CCCC[C@H]2C[C@H]1C(=O)NC(C)(C)C [NFV]
- effect on luciferase signal by time of addition (HIV-1 NL4-3): had no effect when added at any time point
- inhibition of luciferase, compound added at stage 1 (virus production) [2]: luciferase activity was inhibited
- inhibition of luciferase, compound added at stage 2 (infection) [2]: luciferase production was not inhibited
- EC50 [1, 12]: 0.005 µM
- EC50 (HIV-1 gp160): > 2 µM

SMILES: C=C(C)[C@@H]1CC[C@]2(C(=O)NCCc3ccccn3)CC[C@]3(C)[C@H](CC[C@@H]4[C@@]5(C)CC=C(c6ccc(C(=O)O)cc6)C(C)(C)[C@@H]5CC[C@]43C)[C@@H]12 [BMS-2]
- EC50 [3, 13]: 0.014 µM
- EC50 [3, 14]: 0.049 µM
- EC50 [3, 15]: 0.029 µM
- EC50 [3, 16]: 0.629 µM
- EC50 [3, 17]: 0.038 µM
- EC50 [3, 18]: 0.026 µM
- EC50 [3, 19]: 0.076 µM
- EC50 [1, 20]: 0.415 µM

SMILES: C=C(C)[C@@H]1CC[C@]2(C(=O)NCCN(C)C)CC[C@]3(C)[C@H](CC[C@@H]4[C@@]5(C)CC=C(c6ccc(C(=O)O)cc6)C(C)(C)[C@@H]5CC[C@]43C)[C@@H]12 [BMS-3]
- EC50 [1, 20]: 0.031 µM

SMILES: Cc1cn([C@H]2C[C@H](N=[N+]=[N-])[C@@H](CO)O2)c(=O)[nH]c1=O [Zidovudine]
- Fold change in EC50 (SD) relative to parental strain [4]: 0.82 (0.41)
- Fold change in EC50 (SD) relative to parental strain [5]: 79 (5)
- Fold change in EC50 (SD) relative to parental strain [6]: 1.03 (0.17)
- Fold change in EC50 (SD) relative to parental strain [7]: 0.78 (0.03)

SMILES: CC(C)CN(C[C@@H](O)[C@H](Cc1ccccc1)NC(=O)O[C@H]1CO[C@H]2OCC[C@H]21)S(=O)(=O)c1ccc(N)cc1 [Darunavir]
- Fold change in EC50 (SD) relative to parental strain [4]: 1.1 (0.1)
- Fold change in EC50 (SD) relative to parental strain [6]: 0.90 (0.1)
- Fold change in EC50 (SD) relative to parental strain [7]: 1.2 (0.4)
- EC50 [1, 12]: 0.0045 µM
- Fold change in EC50 (SD) relative to parental strain [8]: 41 (1.9)
- Fold change in EC50 (SD) relative to parental strain [9]: 2.3
- EC50 [10]: 0.0023 µM

SMILES: C=C(C)[C@@H]1CC[C@]2(C(=O)O)CC[C@]3(C)[C@H](CC[C@@H]4[C@@]5(C)CC[C@H](OC(=O)CC(C)(C)C(=O)O)C(C)(C)[C@@H]5CC[C@]43C)[C@@H]12 [BVM, 3-O-(3′,3′-dimethylsuccinyl)betulinic acid, reference compound]
- effect on luciferase signal by time of addition (HIV-1 NL4-3): had no effect when added at any time point
- inhibition of luciferase, compound added at stage 1 (virus production) [2]: inhibiting luciferase production only when added in the first stage; also recorded: does not attain complete inhibition relative to NFV
- inhibition of luciferase, compound added at stage 2 (infection) [2]: inhibiting luciferase production only when added in the first stage
- competition for the binding of [3H]BMS-955176 (HIV-1 Gag (WT LAI VLPs)): A similar result was obtained by displacement
- EC50 [3, 13]: 0.014 µM
- EC50 [3, 14]: 0.113 µM
- EC50 [3, 15]: 0.036 µM
- EC50 [3, 16]: > 4 µM
- EC50 [3, 17]: 0.227 µM
- EC50 [3, 18]: 0.251 µM
- EC50 [3, 19]: 0.903 µM
- EC50 [1, 12]: ≥ 10 µM
- EC50 [1, 20]: > 10 µM
- inhibition of conversion of VLP p25 to p24 [11]: inhibited the conversion of HIV-1 WT VLP p25 to p24 in a dose-dependent manner

SMILES: C=C(C)[C@@H]1CC[C@]2(C(=O)O)CC[C@]3(C)[C@H](CC[C@@H]4[C@@]5(C)CC=C(c6ccc(C(=O)O)cc6)C(C)(C)[C@@H]5CC[C@]43C)[C@@H]12 [BMS-1]
- EC50 [1, 20]: > 6 µM

SMILES: Cc1nnc(C(=O)NC(C)(C)c2nc(C(=O)NCc3ccc(F)cc3)c(O)c(=O)n2C)o1 [Raltegravir]
- Fold change in EC50 (SD) relative to parental strain [4]: >340 (72)
- time postinfection at which effectiveness begins to be lost (HIV-1 NL4-3): 8 h
- competition for the binding of [3H]BMS-955176 (HIV-1 Gag (WT LAI VLPs)): did not compete
- Fold change in EC50 (SD) relative to parental strain [6]: 1.8 (0.4)
- Fold change in EC50 (SD) relative to parental strain [7]: 1.9 (0.6)
- EC50 [1, 12]: 0.0034 µM
- Fold change in EC50 (SD) relative to parental strain [8]: 0.18 (0.07)
- EC50 [10]: 0.0033 µM

SMILES: COC(=O)N[C@H](C(=O)N[C@@H](Cc1ccccc1)[C@@H](O)CN(Cc1ccc(-c2ccccn2)cc1)NC(=O)[C@@H](NC(=O)OC)C(C)(C)C)C(C)(C)C [Atazanavir]
- Fold change in EC50 (SD) relative to parental strain [4]: 1.0 (0.21)
- Fold change in EC50 (SD) relative to parental strain [5]: 2.27 (0.02)
- Fold change in EC50 (SD) relative to parental strain [6]: 0.93 (0.03)
- Fold change in EC50 (SD) relative to parental strain [7]: 1.1 (0.1)
- EC50 [1, 12]: 0.0038 µM
- Fold change in EC50 (SD) relative to parental strain [9]: 39
- EC50 [10]: 0.0023 µM

SMILES: C[C@H](Cn1cnc2c(N)ncnc21)OCP(=O)(O)O [Tenofovir]
- EC50 [1, 12]: 0.0072 µM
- EC50 [10]: 0.005 µM

SMILES: O=C1Nc2ccc(Cl)cc2[C@@](C#CC2CC2)(C(F)(F)F)O1 [Efavirenz]
- Fold change in EC50 (SD) relative to parental strain [4]: 0.60 (0.3)
- time postinfection at which effectiveness begins to be lost (HIV-1 NL4-3): 6 h
- Fold change in EC50 (SD) relative to parental strain [6]: 55 (2.2)
- Fold change in EC50 (SD) relative to parental strain [7]: 1.0 (0.1)
- Fold change in EC50 (SD) relative to parental strain [8]: 0.20 (0.01)
- Fold change in EC50 (SD) relative to parental strain [9]: 1.4

SMILES: COc1ccnc2[nH]cc(C(=O)C(=O)N3CCN(C(=O)c4ccccc4)C[C@H]3C)c12 [BMS-378806]
- effect on luciferase signal by time of addition (HIV-1 NL4-3): fully inhibitory (0% of control) only when added at the time of infection
- time postinfection at which effectiveness begins to be lost (HIV-1 NL4-3): ≤ 4 h
- inhibition of luciferase, compound added at stage 1 (virus production) [2]: inhibitory when added at either stage 1 or 2
- inhibition of luciferase, compound added at stage 2 (infection) [2]: inhibitory when added at either stage 1 or 2
- EC50 (HIV-1 gp160; cell-cell fusion, luciferase, read-out: EC50): 0.0009 µM

SMILES: Cc1ccnc2c1NC(=O)c1cccnc1N2C1CC1 [Nevirapine]
- Fold change in EC50 (SD) relative to parental strain [4]: 0.89 (0.59)
- Fold change in EC50 (SD) relative to parental strain [5]: 1.6 (0.2)
- Fold change in EC50 (SD) relative to parental strain [6]: >131 (108)
- Fold change in EC50 (SD) relative to parental strain [7]: 1.3 (0.2)
- EC50 [1, 12]: 0.17 µM
- Fold change in EC50 (SD) relative to parental strain [8]: 0.83 (0.08)
- EC50 [10]: 0.93 µM

SMILES: Cc1cc(/C=C/C#N)cc(C)c1Nc1ccnc(Nc2ccc(C#N)cc2)n1 [Rilpivirine]
- Fold change in EC50 (SD) relative to parental strain [4]: 1.0 (0.5)
- Fold change in EC50 (SD) relative to parental strain [6]: 8.1 (1.5)
- Fold change in EC50 (SD) relative to parental strain [7]: 2.0 (0.3)
- Fold change in EC50 (SD) relative to parental strain [8]: 2.6 (0.8)
